PubChem BioAssay AID248 (DTP/NCI, 2004)
Where “and” joins values, the source holds several entries; their conditions need not be identical. Equal values may be shown once. Toxic doses and inconclusive results are not listed. Rule as the data show it: active = T/C of 150% or more; inactive = T/C below 125%.

Test system: L1210 leukemia ip in BDF1 mice, survival T/C
Assay: NCI In Vivo Anticancer Drug Screen. Data for tumor model L1210 Leukemia (intraperitoneal) in B6D2F1 (BDF1) mice
Details: endpoint: mean survival time, higher = longer survival
Procedure, shortened: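 Value reflects the ratio of survival in compound-treated mice to survival in vehicle-treated controls, with both groups carrying the same transplanted tumor.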

[1] = dose: 100.0 mg/kg/injection, schedule: Q01DX009 (ip), vehicle: saline with Tween-80
[2] = dose: 100.0 mg/kg/injection, schedule: Q01DX009 (ip), vehicle: Klucel (hydroxypropylcellulose) (HPC)
[3] = dose: 200.0 mg/kg/injection, schedule: Q01DX009 (ip), vehicle: Klucel (hydroxypropylcellulose) (HPC)
[4] = dose: 400.0 mg/kg/injection, schedule: Q01DX009 (ip), vehicle: Klucel (hydroxypropylcellulose) (HPC)
[5] = dose: 50.0 mg/kg/injection, schedule: Q04DX003 (ip), vehicle: saline
[6] = dose: 100.0 mg/kg/injection, schedule: Q04DX003 (ip), vehicle: saline
[7] = dose: 200.0 mg/kg/injection, schedule: Q04DX003 (ip), vehicle: saline
[8] = dose: 50.0 mg/kg/injection, schedule: Q01DX001 (ip), vehicle: saline
[9] = dose: 100.0 mg/kg/injection, schedule: Q01DX001 (ip), vehicle: saline
[10] = dose: 200.0 mg/kg/injection, schedule: Q01DX001 (ip), vehicle: saline
[11] = dose: 400.0 mg/kg/injection, schedule: Q01DX001 (ip), vehicle: saline
[12] = dose: 100.0 mg/kg/injection, schedule: Q01DX001 (ip), vehicle: carboxymethylcellulose (CMC)
[13] = dose: 200.0 mg/kg/injection, schedule: Q01DX001 (ip), vehicle: carboxymethylcellulose (CMC)
[14] = dose: 400.0 mg/kg/injection, schedule: Q01DX001 (ip), vehicle: carboxymethylcellulose (CMC)
[15] = dose: 12.5 mg/kg/injection, schedule: Q01DX009 (ip), vehicle: saline
[16] = dose: 25.0 mg/kg/injection, schedule: Q01DX009 (ip), vehicle: saline
[17] = dose: 400.0 mg/kg/injection, schedule: Q04DX003 (ip), vehicle: saline

Measured: T/C

CCCCCCCCCCCC[Si](c1ccccc1)(c1ccccc1)c1ccccc1
inactive: dose: 100.0 mg/kg/injection, schedule: Q04DX003 (ip), vehicle: other 94 % of control | dose: 200.0 mg/kg/injection, schedule: Q04DX003 (ip), vehicle: other 96 % of control | dose: 400.0 mg/kg/injection, schedule: Q04DX003 (ip), vehicle: other 90 % of control

O=C(O)c1cc(Cl)c(O)c(Cl)c1
inactive: [1] 107 % of control | dose: 200.0 mg/kg/injection, schedule: Q01DX009 (ip), vehicle: saline with Tween-80 91 % of control | dose: 400.0 mg/kg/injection, schedule: Q01DX009 (ip), vehicle: saline with Tween-80 101 % of control

S=c1[nH]c(=S)c2[nH]c(=S)[nH]c2[nH]1
inactive: [2] 91 % of control | [3] 93 % of control | [4] 95 % of control

COc1ccc(OC)c(/C=C2\SC(=S)N(C3OC(COC(C)=O)C(OC(C)=O)C(OC(C)=O)C3OC(C)=O)C2=O)c1 (stereo unspecified)
inactive: dose: 25.0 mg/kg/injection, schedule: Q01DX005 (ip), vehicle: other 101 % of control | dose: 50.0 mg/kg/injection, schedule: Q01DX005 (ip), vehicle: other 108 % of control | dose: 100.0 mg/kg/injection, schedule: Q01DX005 (ip), vehicle: other 101 % of control | dose: 200.0 mg/kg/injection, schedule: Q01DX005 (ip), vehicle: other 97 % of control | dose: 400.0 mg/kg/injection, schedule: Q01DX005 (ip), vehicle: other 104 % of control

Cc1cc(OCC(=O)O)c(Cl)cc1Cl
inactive: dose: 50.0 mg/kg/injection, schedule: Q01DX009 (ip), vehicle: saline with Tween-80 92 % of control | [1] 99 % of control

COC(=O)C1C2CC3c4[nH]c5cc(OC)ccc5c4CCN3CC2CC(O)C1OC (stereo unspecified)
inactive: dose: 50.0 mg/kg/injection, schedule: Q04DX002 (ip), vehicle: Klucel (hydroxypropylcellulose) (HPC) 96 % of control | dose: 100.0 mg/kg/injection, schedule: Q04DX002 (ip), vehicle: Klucel (hydroxypropylcellulose) (HPC) 90 % of control

O=C(O)CC1CCC2CC(O)c3cccc1c32 (stereo unspecified)
inactive: dose: 100.0 mg/kg/injection, schedule: Q04DX003 (ip), vehicle: acetone 106 % of control | dose: 200.0 mg/kg/injection, schedule: Q04DX003 (ip), vehicle: acetone 105 % of control | dose: 400.0 mg/kg/injection, schedule: Q04DX003 (ip), vehicle: acetone 105 % of control

CN(N=O)C(=O)C(=O)N(C)N=O
inactive: dose: 9.0 mg/kg/injection, schedule: Q01DX001 (ip), vehicle: other 109 % of control | dose: 13.0 mg/kg/injection, schedule: Q01DX001 (ip), vehicle: other 112 % of control | dose: 15.0 mg/kg/injection, schedule: Q01DX Z (ip), vehicle: saline 100 % of control | dose: 30.0 mg/kg/injection, schedule: Q01DX Z (ip), vehicle: saline 103 % of control | dose: 60.0 mg/kg/injection, schedule: Q01DX Z (ip), vehicle: saline 92 % of control | dose: 120.0 mg/kg/injection, schedule: Q01DX Z (ip), vehicle: saline 94 % of control

c1ccc(-c2ncnc3c2Cc2ccccc2-3)cc1
inactive: dose: 100.0 mg/kg/injection, schedule: Q04DX003 (ip), vehicle: saline sonified 92 % of control | dose: 200.0 mg/kg/injection, schedule: Q04DX003 (ip), vehicle: saline sonified 94 % of control | dose: 400.0 mg/kg/injection, schedule: Q04DX003 (ip), vehicle: saline sonified 97 % of control

CC(=O)N1CCCC(=O)CCCCCCC1=O
inactive: [5] 95 % of control | [6] 103 % of control | [7] 88 % of control

COc1cc(Cc2cnc(N)nc2N)cc(OC)c1OC
inactive: [8] 101 % of control | [9] 92 % of control | [10] 100 % of control | [11] 97 % of control

Nc1cccc(OCc2cccc([N+](=O)[O-])c2)c1
inactive: [12] 101 % of control | [13] 90 % of control | [14] 86 % of control

CCOC1CC2c3ccccc3C1c1cccc[n+]12 (stereo unspecified)
inactive: [15] 100 % of control | dose: 12.5 mg/kg/injection, schedule: Q04DX003 (ip), vehicle: saline 100 % of control and 94 % of control | [16] 98 % of control | dose: 25.0 mg/kg/injection, schedule: Q04DX003 (ip), vehicle: saline 89 % of control and 101 % of control | dose: 50.0 mg/kg/injection, schedule: Q01DX009 (ip), vehicle: saline 94 % of control and 96 % of control | [5] 97 % of control and 101 % of control | dose: 75.0 mg/kg/injection, schedule: Q01DX009 (ip), vehicle: saline 88 % of control | [6] 98 % of control | [7] 107 % of control | [17] 86 % of control

CN1CCC(CN2c3ccccc3Sc3ccccc32)C1 (stereo unspecified)
inactive: dose: 3.12 mg/kg/injection, schedule: Q01DX009 (ip), vehicle: saline 95 % of control | dose: 6.25 mg/kg/injection, schedule: Q01DX009 (ip), vehicle: saline 107 % of control | [15] 101 % of control | [16] 101 % of control

O/N=C(\c1ccccc1)C(O)c1ccccc1 (stereo unspecified)
inactive: dose: 50.0 mg/kg/injection, schedule: Q01DX001 (ip), vehicle: carboxymethylcellulose (CMC) 113 % of control | [12] 105 % of control | [13] 105 % of control | [14] 102 % of control

Cc1cc(C)c2c(C#N)cn(-c3ccc([N+](=O)[O-])cc3)c2n1
inactive: dose: 100.0 mg/kg/injection, schedule: Q01DX001 (ip), vehicle: saline with Tween-80 98 % of control | dose: 200.0 mg/kg/injection, schedule: Q01DX001 (ip), vehicle: saline with Tween-80 109 % of control | [10] 102 % of control | dose: 400.0 mg/kg/injection, schedule: Q01DX001 (ip), vehicle: saline with Tween-80 95 % of control | [11] 94 % of control

O=C(CN1C(=O)c2ccccc2C1=O)OC(c1ccccc1)c1ccccc1
inactive: [2] 102 % of control | dose: 100.0 mg/kg/injection, schedule: Q04DX003 (ip), vehicle: Klucel (hydroxypropylcellulose) (HPC) 98 % of control | [3] 104 % of control | dose: 200.0 mg/kg/injection, schedule: Q04DX003 (ip), vehicle: Klucel (hydroxypropylcellulose) (HPC) 96 % of control | [4] 104 % of control | dose: 400.0 mg/kg/injection, schedule: Q04DX003 (ip), vehicle: Klucel (hydroxypropylcellulose) (HPC) 96 % of control

CC(C)(C)NC(=O)Oc1cccnc1
inactive: [2] 93 % of control | [3] 102 % of control

CC(=O)Nc1ccc(-c2ccc(C)cc2)cc1
inactive: dose: 100.0 mg/kg/injection, schedule: Q04DX003 (ip), vehicle: saline with Tween-80 104 % of control | dose: 200.0 mg/kg/injection, schedule: Q04DX003 (ip), vehicle: saline with Tween-80 106 % of control | dose: 400.0 mg/kg/injection, schedule: Q04DX003 (ip), vehicle: saline with Tween-80 95 % of control

COc1ccc2nc3ccccc3c(N)c2c1
inactive: dose: 5.0 mg/kg/injection, schedule: Q01DX001 (ip), vehicle: saline 100 % of control | dose: 10.0 mg/kg/injection, schedule: Q01DX001 (ip), vehicle: saline 100 % of control | dose: 20.0 mg/kg/injection, schedule: Q01DX001 (ip), vehicle: saline 97 % of control | dose: 40.0 mg/kg/injection, schedule: Q01DX001 (ip), vehicle: saline 90 % of control

Nc1nc(N)c(NC/C=C\c2ccc([N+](=O)[O-])cc2)c(-c2ccccc2)n1
inactive: [8] 91 % of control | [9] 97 % of control | [10] 103 % of control | [11] 109 % of control

COc1ccc(C=NCCc2ccc(OC)c(OC)c2)cc1OC
inactive: dose: 100.0 mg/kg/injection, schedule: Q01DX009 (ip), vehicle: saline 89 % of control | [6] 102 % of control | dose: 200.0 mg/kg/injection, schedule: Q01DX009 (ip), vehicle: saline 98 % of control | [7] 97 % of control | dose: 400.0 mg/kg/injection, schedule: Q01DX009 (ip), vehicle: saline 97 % of control | [17] 105 % of control

CCCc1c(OCC)c(OC)c2c3c(c(-c4c(C)cc5c(CCC)c(OCC)c(OC)c6c5c4OC6OC)c(C)cc13)OC2OC (stereo unspecified)
inactive: [2] 94 % of control | [3] 98 % of control | [4] 98 % of control
